Article PMC10350922, “Allosteric Inhibitors of Macrophage Migration Inhibitory Factor (MIF) Interfere with Apoptosis-Inducing Factor (AIF) Co-Localization to Prevent Parthanatos” (Journal of Medicinal Chemistry, 2023)

Target: T1, MIF (Homo sapiens, UniProt P14174)
T1 construct: made in house; host or cells: Escherichia coli BL21, pET-20b(p) plasmid
T1 sequence (P14174 2-115 limits assumed): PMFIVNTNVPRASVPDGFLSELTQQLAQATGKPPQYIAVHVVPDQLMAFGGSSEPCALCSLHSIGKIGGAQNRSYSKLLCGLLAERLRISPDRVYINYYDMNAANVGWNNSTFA
Assay: Enzyme kinetics of MIF-catalyzed PP conversion (Michaelis-Menten, Lineweaver-Burk)
Format: biochemical
Conditions: for Vmax: 35 nM MIF
Experimental: Enzyme kinetics experiments were performed to determine the mode of MIF inhibition by 6y (SI, Table S1). The rate of MIF-catalyzed PP conversion was measured at concentrations ranging from 0 to 10 mM in the absence or presence of various inhibitor concentrations (0, 1.4 μM, 2.1 μM, or 2.8 μM).
Toward this aim, 10 μL of the inhibitors was added to 190 μL of the enzyme solution and incubated for 10 min. Then, 50 μL of these solutions was mixed with 50 μL of the solutions of the substrate with different concentrations. The reactions were measured by the increase in UV absorbance at 300 nm, and the data from the first 3 min were used to calculate the initial velocities. The negative control (no MIF) was subtracted from all of the data, and the curves were fitted using nonlinear regression, Michaelis–Menten, and linear regression, Lineweaver–Burk. Vmax was defined as the maximum velocity as extrapolated by the curve fit. The Km of PP was defined as the concentration of PP at which 50% of maximum velocity was reached. The data were analyzed using GraphPad Prism 8.
1. Supporting figures and tables
Figure S1. Michaelis-Menten plot of MIF inhibition by 6y at the concentrations 0, 1.4, 2.1 and 2.8 µM.
Table S1. Kinetic parameters of 6y measured at 35nM of MIF.
(1 picture or pasted object on this page, not shown here)

**Q.** How did the Vmax (1.4 μM 6y) turn out when `O=C(Nc1ccccc1)c1ccc(-n2cc(C(=O)NCc3cccs3)nn2)cc1` [Compound 6y, 1-(4-(Phenylcarbamoyl)phenyl)-N-(thiophen-2-ylmethyl)-1H-1,2,3-triazole-4-carboxamide] was run?
**A.** The Vmax was 0.21±0.02 abs/min.

**Q.** What about the Vmax (2.1 µM 6y) of the same compound?
**A.** The Vmax was 0.13±0.01 abs/min.

**Q.** What about the Vmax (2.8 μM 6y) of the same compound?
**A.** The Vmax was 0.08±0.01 abs/min.

**Q.** What about the “Mode of MIF inhibition” value (Lineweaver-Burk plot, 0, 1.4, 2.1, 2.8 μM) of the same compound?
**A.** Its value is “noncompetitive”.

**Q.** What about the “Vmax at highest inhibitor concentration” value (decreasing from 0.40 ± 0.03 (control)) of the same compound?
**A.** Its value is 0.08 ± 0.01 absorbance/min.
